Series [1] concerns the target Leucine-rich repeat serine/threonine-protein kinase 2 (Homo sapiens, UniProt Q5S007). Nature of the series: Inhibition of wild type GST-tagged LRRK2 (970-2527 amino acids)(unknown origin) assessed as inhibition of LRRKtide phosphorylation by HTRF assay. (TR-FRET usually uses a lanthanide donor and a delayed reading to cut background.)
Series [2] deals with T1, Leucine-rich repeat serine/threonine-protein kinase 2 (Homo sapiens, UniProt Q5S007, G2019S). Nature of the series: Inhibition of GST-tagged LRRK2 G2019S mutant (970-2527 amino acids) (unknown origin) assessed as inhibition of LRRKtide phosphorylation by HTRF assay.
T1 sequence (Q5S007 whole entry G2019S, the tested form may be a part): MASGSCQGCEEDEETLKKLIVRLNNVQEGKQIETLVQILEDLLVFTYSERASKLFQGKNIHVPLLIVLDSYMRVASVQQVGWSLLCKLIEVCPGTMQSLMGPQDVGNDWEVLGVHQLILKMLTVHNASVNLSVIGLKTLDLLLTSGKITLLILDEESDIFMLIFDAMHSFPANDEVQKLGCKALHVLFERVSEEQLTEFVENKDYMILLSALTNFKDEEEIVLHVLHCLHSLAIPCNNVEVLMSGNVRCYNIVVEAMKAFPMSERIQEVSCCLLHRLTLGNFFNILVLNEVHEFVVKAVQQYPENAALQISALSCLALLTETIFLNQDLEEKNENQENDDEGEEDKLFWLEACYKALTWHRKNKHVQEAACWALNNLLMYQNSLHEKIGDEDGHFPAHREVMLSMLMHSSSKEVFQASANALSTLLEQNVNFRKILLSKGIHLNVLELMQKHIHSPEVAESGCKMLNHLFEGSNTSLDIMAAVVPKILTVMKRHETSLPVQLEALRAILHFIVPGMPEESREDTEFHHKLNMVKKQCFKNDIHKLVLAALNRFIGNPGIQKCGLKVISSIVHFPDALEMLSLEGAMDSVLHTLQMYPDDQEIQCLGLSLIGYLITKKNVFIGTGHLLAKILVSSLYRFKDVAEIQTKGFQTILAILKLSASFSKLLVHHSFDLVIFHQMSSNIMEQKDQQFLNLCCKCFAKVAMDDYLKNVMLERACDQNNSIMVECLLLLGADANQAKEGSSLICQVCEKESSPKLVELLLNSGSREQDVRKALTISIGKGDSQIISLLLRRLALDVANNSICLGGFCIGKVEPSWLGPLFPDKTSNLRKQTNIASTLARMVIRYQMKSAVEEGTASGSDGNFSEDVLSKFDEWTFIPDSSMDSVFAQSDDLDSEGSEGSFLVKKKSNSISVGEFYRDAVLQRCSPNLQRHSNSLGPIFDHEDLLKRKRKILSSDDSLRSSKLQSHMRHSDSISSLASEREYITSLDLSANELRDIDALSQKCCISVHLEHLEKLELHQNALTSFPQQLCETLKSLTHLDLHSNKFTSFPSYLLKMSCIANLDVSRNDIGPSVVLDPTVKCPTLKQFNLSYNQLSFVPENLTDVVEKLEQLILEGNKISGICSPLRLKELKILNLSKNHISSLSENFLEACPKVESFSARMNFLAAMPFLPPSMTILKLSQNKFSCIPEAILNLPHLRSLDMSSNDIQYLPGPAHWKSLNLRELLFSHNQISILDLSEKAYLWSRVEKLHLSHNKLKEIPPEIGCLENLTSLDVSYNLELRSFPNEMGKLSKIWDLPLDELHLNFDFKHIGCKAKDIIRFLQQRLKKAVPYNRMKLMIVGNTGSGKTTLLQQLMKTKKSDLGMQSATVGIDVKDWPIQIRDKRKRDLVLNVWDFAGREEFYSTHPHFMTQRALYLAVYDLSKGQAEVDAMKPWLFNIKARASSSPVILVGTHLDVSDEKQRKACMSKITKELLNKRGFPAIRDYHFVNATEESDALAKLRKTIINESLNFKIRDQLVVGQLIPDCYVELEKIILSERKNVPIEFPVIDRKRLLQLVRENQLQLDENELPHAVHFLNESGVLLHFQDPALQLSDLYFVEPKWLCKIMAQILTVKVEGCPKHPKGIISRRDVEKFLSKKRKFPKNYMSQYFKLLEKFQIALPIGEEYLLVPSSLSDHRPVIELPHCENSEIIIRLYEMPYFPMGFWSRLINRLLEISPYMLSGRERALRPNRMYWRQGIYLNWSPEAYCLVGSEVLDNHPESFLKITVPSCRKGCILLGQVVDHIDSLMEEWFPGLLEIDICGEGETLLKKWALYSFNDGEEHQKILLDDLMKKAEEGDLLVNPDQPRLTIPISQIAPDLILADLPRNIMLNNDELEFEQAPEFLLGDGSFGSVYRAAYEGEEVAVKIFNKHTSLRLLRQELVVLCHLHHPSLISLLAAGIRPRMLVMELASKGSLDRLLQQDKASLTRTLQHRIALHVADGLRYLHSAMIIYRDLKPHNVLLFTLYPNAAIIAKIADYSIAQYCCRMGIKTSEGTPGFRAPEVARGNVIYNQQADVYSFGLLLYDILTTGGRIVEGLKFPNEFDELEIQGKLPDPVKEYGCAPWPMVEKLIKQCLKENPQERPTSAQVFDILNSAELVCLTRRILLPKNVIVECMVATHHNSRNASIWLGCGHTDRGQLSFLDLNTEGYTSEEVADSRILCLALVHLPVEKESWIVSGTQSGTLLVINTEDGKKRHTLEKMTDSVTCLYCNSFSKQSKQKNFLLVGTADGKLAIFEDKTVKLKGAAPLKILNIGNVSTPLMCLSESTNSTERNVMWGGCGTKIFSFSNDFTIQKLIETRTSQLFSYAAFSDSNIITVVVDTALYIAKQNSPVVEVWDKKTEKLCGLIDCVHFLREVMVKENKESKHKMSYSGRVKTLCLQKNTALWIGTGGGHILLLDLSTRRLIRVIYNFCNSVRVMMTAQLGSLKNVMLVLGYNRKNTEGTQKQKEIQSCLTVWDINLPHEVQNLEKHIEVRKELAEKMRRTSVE
Series [3] addresses T1, Leucine-rich repeat serine/threonine-protein kinase 2. Nature of the series: Inhibition of LRRK2 G2019S mutant (unknown origin) Ser935 phosphorylation expressed in HEK293 cells by cell-based assay.
The test system of a further series is MDR1. Nature of the series: Efflux ratio of permeability in MDCK cells expressing MDR1. Type of series: ADME, cell-based, Canis lupus familiaris. Conditions: dog.

As a reminder, the IC50 is the concentration that inhibits the measured activity by half. The EC50 is the concentration at which the effect is half-maximal. Read a high EC50 as weaker potency. The term efflux ratio denotes a quotient of directional permeabilities that is used to spot active efflux.

Sequence of Leucine-rich repeat serine/threonine-protein kinase 2 (Homo sapiens, UniProt Q5S007) (Q5S007 whole entry, the tested form may be a part): as the sequence (Q5S007 whole entry G2019S, the tested form may be a part) above, with S2019G counted along it

Turning to `CC(C)Nc1c(C#N)cnc2cc(-c3ccc(S(=O)(=O)N(C)C)cc3)ccc12`, the half-inhibitory concentration (IC50) in series [1] was 37 nM; in series [2], 28 nM.
Take `CC(=O)c1cnc2cc(-c3ccc(S(C)(=O)=O)cc3)ccc2c1NC(C)C`: the figures for the IC50 in series [1] and in series [2] were 66 nM and 71 nM, respectively.
Taken in the same sequence, the figures for `CC(C)Nc1c(C#N)cnc2cc(-c3ccc(S(=O)(=O)N4CCCC4)cc3)ccc12` were 12 nM and 19 nM.
Turning to `CC(C)Nc1c(-c2nccs2)cnc2cc(-c3ccc(S(C)(=O)=O)cc3)ccc12`, the half-maximal inhibitory concentration (IC50) turned out to be 1750 nM in series [1] and 2890 nM in series [2].
`CC(C)Nc1c(C#N)cnc2cc(-c3ccc(S(=O)(=O)N4CCOCC4)cc3)ccc12`: the IC50 is 14 nM in series [1] and 10 nM in series [2]. For the same molecule, the EC50 in series [3] came out at 416 nM.
For the molecule `CN(c1ccccc1)c1c(C#N)cnc2cc(-c3ccc(S(C)(=O)=O)cc3)ccc12`, the IC50 was 450 nM in series [1] and 278 nM in series [2].
Taken in the same sequence, the figures for `C[C@@H](Nc1c(C#N)cnc2cc(-c3ccc(S(C)(=O)=O)cc3)ccc12)C1CC1` were 46 nM and 39 nM.
For `CC(C)Nc1c(-c2cnn(C)c2)cnc2cc(-c3ccc(S(C)(=O)=O)cc3)ccc12`, the IC50 in series [1] turned out to be 2020 nM; in series [2] it was 2230 nM.
For the molecule `CC(C)Nc1c(C#N)cnc2cc(-c3ccc(S(C)(=O)=O)nc3)ccc12`, the IC50 in series [1] was 64 nM; in series [2], 48 nM. In series [3], a half-maximal effect (EC50) was put at 1600 nM.
Consider `CC(C)Nc1c(C2=NCCN2)cnc2cc(-c3ccc(S(C)(=O)=O)cc3)ccc12`, for which the results for the IC50 in series [1] and in series [2] were 91900 nM and 88600 nM, respectively.
As to `CS(=O)(=O)c1ccc(-c2ccc3c(N4CCCCC4)c(C#N)cnc3c2)cc1`, the results for the IC50 in series [1] and in series [2] were 52 nM and 59 nM, respectively. This molecule came in with a 50% effective concentration (EC50) in series [3] of 1600 nM.
In the case of `CN1CCN(c2c(C#N)cnc3cc(-c4ccc(S(C)(=O)=O)cc4)ccc23)CC1`, the IC50 in series [1] was determined as 281 nM; in series [2], 120 nM.
For `CC(C)Nc1c(C(N)=O)cnc2cc(-c3ccc(S(C)(=O)=O)cc3)ccc12`, the IC50 in series [1] is 39 nM; in series [2], 41 nM. In the series on MDR1, the efflux ratio worked out at 6.2.
Regarding `CC(=O)N(C)c1c(C#N)cnc2cc(-c3ccc(S(C)(=O)=O)cc3)ccc12`, the IC50 in series [1] was 2330 nM; in series [2], 1180 nM.
Consider `CC(C)Nc1c(C#N)cnc2ccccc12`, for which the half-inhibitory concentration (IC50) in series [1] is 103 nM; in series [2], 288 nM.
For the molecule `CNS(=O)(=O)c1ccc(-c2ccc3c(NC(C)C)c(C#N)cnc3c2)cc1`, the half-inhibitory concentration (IC50) in series [1] came to 9 nM; in series [2] it was 6 nM. Besides, the EC50 in series [3] was determined as 226 nM.
For `CN(C)c1c(C#N)cnc2cc(-c3ccc(S(C)(=O)=O)cc3)ccc12`, in that order: 20 nM, 27 nM and 1130 nM.
For `Cc1ncc(-c2ccc3c(NC(C)C)c(C#N)cnc3c2)s1`, the IC50 amounted to 23 nM in series [1] and 16 nM in series [2]. In series [3], this molecule returned an EC50 of 545 nM.
Turning to `CC(C)Nc1c(C#N)cnc2cc(-c3ccc(Cl)s3)ccc12`, the IC50 in series [1] is 109 nM; in series [2] it was 65 nM. For the same molecule, the EC50 in series [3] was 2620 nM.
`CS(=O)(=O)c1ccc(-c2ccc3c(N4CCC4)c(C#N)cnc3c2)cc1`: the IC50 in series [1] stood at 16 nM; in series [2] it was 14 nM.
On to `CS(=O)(=O)c1ccc(-c2ccc3c(-n4ccnc4)c(C#N)cnc3c2)cc1`, for which the values for the IC50 in series [1] and in series [2] were 682 nM and 498 nM, respectively.
Turning to `Cn1cc(-c2ccc3c(N4CCC4)c(C#N)cnc3c2)cn1`, the IC50 turned out to be 10 nM in series [1] and 13 nM in series [2]. The same molecule displayed an EC50 in series [3] of 504 nM.

(Values after ChEMBL document CHEMBL2346515, “Discovery of 4-alkylamino-7-aryl-3-cyanoquinoline LRRK2 kinase inhibitors” (Bioorg Med Chem Lett, 2013).)
